7 molecules from US8263401B2, “Adenylyl cyclase antibodies, compositions and uses thereof” (University of Medicine and Dentistry of New Jersey, priority 2005, dated 2012) can be followed below.

Test [1] has as its system ISO-stimulated AC activity in heart membranes. Briefly: AC assay in heart membrane preparations. In kind it is biochemical, mouse. The note with it: carbachol 10 μM. The protocol: Hearts were dissected from the mice and membrane preparations were prepared as described previously (Ishikawa, Y., Sorota, S., Kiuchi, K., Shannon, R. P., Komamura, K., Katsushika, S., Vatner, D. E., Vatner, S. F., and Homcy, C. J. (1994), J. Clin. Invest. 93:2224-2229.). Protein concentration was measured by the method of Bradford using bovine serum albumin as a standard (Bradford, M. M. (1976). Anal. Biochem. 72:248-254.). AC activity was measured as described previously (Kawabe, J., Iwami, G., Ebina, T., Ohno, S., Katada, T., Ueda, Y., Homcy, C. J., and Ishikawa, Y. (1994), J. Biol. Chem. 269:16554-16558). AC activity was linear within the incubation time up to 30 min. In order to harvest hearts for tissue cAMP content measurements, mice were allowed to acclimate to the surroundings in the laboratory for an hour before sacrifice. Freshly isolated hearts were briefly immersed in liquid nitrogen. […] The concentration of cAMP was determined with an RIA kit (PerkinElmer Life Sciences, Boston, Mass., USA).
Inventors then examined cAMP production in membranes from the hearts of AC5KO and WT at 6 months of age (FIG. 5A). The steady state AC activity was determined as the maximal capacity of cAMP production in the presence of ISO (100 μM ISO+100 μM GTP), GTPγS (100 μM) or forskolin (100 μM). […]

In test [2] the test system is WT, heterozygous and AC5KO mice. Nature of the test: Rotor rod test before and after db-cAMP injection. In kind it is in vivo, mouse. The note with it: for increase in time spent on the rod without falling: 30 minutes after db-cAMP injection; for rotor rod performance: 48 hours after injection. The protocol: The animals were tested for motor function 30 minutes after i. p. administration of 10 mg/kg of db-cAMP. The test was repeated after 48 hours of drug administration when the drug effect was completely eliminated. Similarly, intracranial injection of db-cAMP was conducted. Before drug injection, the mice were anesthetized with ketamine. Injections of db-cAMP into the mouse brain were performed at the following coordinates: for injection into the striatum: 1.70 mm anterior to the bregma, 1.1 mm to the right of the midline, and 4.1 mm deep. Three micro-liters of drug solution was loaded into an internal cannula needle (C315×33) with cannula tubing connected to a Hamilton syringe mounted onto a microinjection pump (Harvard Apparatus, Dover, Mass.). The drug solutions were delivered at a rate of 0.5 μl/min. Normal saline was injected in a sham control.
The rotor rod test is the most commonly used method to evaluate the motor function in rodents^106 but other methods are also available^107 to reinforce the findings of the rotor rod test. Such tests include rearing test, spontaneous movement study and pole test. The first test examines the frequency of vertical movements of mice and the second examines that of horizontal movements. Thus, spontaneous activity was determined both horizontally (locomotion) and vertically (rearings). The last test, the pole test, examines the degree of bradykinesia. In this test, mice were placed head upward on the top of a rough-surfaced pole. The time until they turned downward (Tturn) and the time until they climbed down to the floor were measured (TLA). Mice were placed in a cage and their movements were videotaped for analysis. Thus, spontaneous movements as an index of motor function were evaluated. Most important, these tests were used to evaluate the recovery of motor function upon cAMP administration and/or adenovirus-mediated gene transfer of AC5 in additional studies. The preliminary data were obtained from littermates of AC5KO, and WT males.
The inventors examined whether the locomotor activity of the AC5KO mouse was impaired compared to a normal mouse. At a glance, the AC5KO mice appeared normal, i.e., they were not catatonic or rigid. […] Inventors analyzed them with a rotor rod test in which mice were put on a rotor rod as shown below. In this task, animals had to make continuous adjustment in balance and posture to remain upright on a rod. The time that mice spent on the accelerating rotor-rod without falling was measured. The rod increased from 3 rpm to 30 rpm during each 5-min trial. […] At the 5th trial, there was a small, but significant decrease in their performance in heterozygous mice.

Test [3] concerns conscious AC5KO and WT mice. Nature of the test: HR and arterial pressure in conscious mice (ECG, micromanometer catheter). In kind it is in vivo, mouse. The note with it: for decrease in HR: Ach 0.01 μg/g i.v.; for increase in HR: atropine 1 μg/g i.v. An excerpt: In AC5KO and WT mice, four ECG wires (New England Electric Wire Corporation, Lisbon, N.H., USA) were placed subcutaneously, a silicone elastomer tubing (Cardiovascular Instrument Corp., Wakefield, Mass., USA) was inserted into the right external jugular vein and a 1.4 F micromanometer catheter (Millar Instruments, Inc., Houston, Tex., USA) was inserted into the lower abdominal aorta via the femoral artery as described previously with some modifications (Uechi, M., Asai, K., Osaka, M., Smith, A., Sato, N., Wagner, T. E., Ishikawa, Y., Hayakawa, H., Vatner, D. E., Shannon, R. P., et al. (1998), Circ. Res. 82:416-423). The ECG wires, the silicone elastomer tubing and the micromanometer catheter were tunneled subcutaneously to the back, externalized, and secured in a plastic cap. On the day of the study, each mouse was placed in the mouse holder, the jugular venous catheter was accessed and connected to a microliter syringe (Hamilton Co., Reno, Nev., USA), the 1.4 F micromanometer catheter was connected to a recorder (Dash 4u; Astro-Med, Inc., West Warwick, R.I., USA) and the ECG wires were connected to an ECG amplifier (Gould Inc., Cleveland, Ohio, USA). All experiments were recorded with animals in the conscious state. After at least 6 hours recovery from the implantation of the catheter, when a stable HR was achieved, the baseline ECG and arterial pressure (AP) were recorded for 5 min. Ach(0.05 μg/g) was then administered intravenously (i.v.), and the ECG and AP recording were repeated. A recovery period of 15 min was allowed for the HR and AP to return to baseline before administering the next drug. Baseline HR slowing was examined in response to phenylephrine (0.2 μg/g i.v.).

The subject of a further test is AC5KO and WT mice. Nature of the test: Echocardiography in anesthetized mice during i.v. ISO infusion, with co-administered Ach. Format: in vivo, mouse. How it is done:
Adenylyl cyclase 5 knockout (AC5KO) mice (6.4±0.2 month old, n=6) and wild type (WT) mice (6.7±0.1 month old, n=6) of either sex from the same genetic background as the transgenic mice were used for the physiological studies. Measurements of LV ejection fraction (LVEF) were performed as described previously (Iwase, M., Uechi, M., Vatner, D. E., Asai, K., Shannon, R. P., Kudej, R. K., Wagner, T. E., Wight, D.C., Patrick, T. A., Ishikawa, Y., et al. (1997), Am. J. Physiol. 272:H585-589.). Briefly, after determination of body weight, mice were anesthetized with ketamine (0.065 mg/g), acepromazine (0.002 mg/g), and xylazine (0.013 mg/g) injected intraperitoneally and were allowed to breathe spontaneously. Echocardiography was performed using ultrasonography (Sequoia C256; Acuson Corporation, Mountain View, Calif., USA). A dynamically focused 15-MHz annular array transducer was applied from below, using a warmed saline bag as a standoff. M-mode echocardiographic measurements of the LV were performed at baseline and during intravenous infusion of ISO (0.005, 0.01, 0.02, and 0.04 μg/kg/min i.v. for 5 minutes each)(Abbott Laboratories Inc, North Chicago, Ill., USA) using an infusion pump (PHD 2000; Harvard Apparatus, Inc., Holliston, Mass., USA). The total amount of the infusion volume was <100 μL in each mouse. […]

Test [4] relates to primary cultured striatal neurons. Briefly: cAMP accumulation in primary cultured striatal neurons. Format: cell-based, mouse. Conditions: neuronal cells from WT mice; forskolin 50 micro M, dopamine 100 micro M (FIG. 9). How it is done:
Reaction with various agonists in the presence of a phosphodiesterase inhibitor proceed for 10 minutes and are stopped by the addition of ice-cold 2.5% perchloric acid, followed by sonication and centrifugation. Pellets are dissolved in 0.1 N NaOH for protein measurements and the supernatants are subject to cAMP assay by radioimmunoassay after neutralization. To examine whether AC5 plays a major role in regulating cAMP production, receptor-stimulated cAMP production and its effect in the striatum was measured. The rationale for this study is as follows. Changes in cAMP signal upon receptor stimulation can be easily determined by measuring AC activity in intact neuronal cells because the striatal membrane preparations present a few problems. Determination of basal, GTPγS— and forskolin-stimulated AC activity may be readily done while receptor-regulated AC activity, both stimulatory and inhibitory, is not easy in the striatum. This is, at least partially, due to less abundant receptor expression and the disruption of the receptor/G protein/AC coupling during the process of membrane homogenization of the striatum. Therefore, the effect of receptor stimulation and its sequential changes in AC activity and further downstream events including the process of phosphorylation/dephosphorylation may be best examined using cultured cells or even the whole body. […]
In general terms: cAMP levels reflect the balance of adenylyl cyclase and phosphodiesterase activity.

`C[N+](C)(C)CCOC(N)=O` [Carbachol]: the “inhibition of ISO-stimulated AC activity” value in test [1] (AC5KO heart membranes) is reported as “did not inhibit”. Also, in test [1] (WT heart membranes), the “decrease of ISO-stimulated AC activity” value was determined as 21±3.4%.

On to `CCCC(=O)Nc1ncnc2c1ncn2[C@@H]1O[C@@H]2COP(=O)(O)O[C@H]2[C@H]1OC(=O)CCC` [db-cAMP], for which the “increase in time spent on the rod without falling” value was “approximately two-fold” in test [2] (AC5KO), 30% in test [2] (WT) and 25% in test [2] (heterozygous). Besides, the values for the rotor rod performance entry in test [2] (AC5KO), in test [2] (WT) and in test [2] (heterozygous) were “dropped to the basal level”, “remained similar” and “remained similar”, respectively.

With `CNC[C@H](O)c1cccc(O)c1` [Phenylephrine, phenylephrine], the “baroreflex mediated slowing of HR” value in test [3] (AC5KO compared with WT, phenylephrine 0.2 μg/g i.v.) was “less”. For the same molecule, the systolic arterial pressure result in test [3] (both WT and AC5KO, phenylephrine 0.2 μg/g i.v.) was “increased systolic arterial pressure significantly”.

As for `CC(C)NCC(O)c1ccc(O)c(O)c1` (stereo not shown) [ISO], in the test on AC5KO and WT mice, the “cardiac responses on LVEF and fractional shortening (FS)” value was “attenuated”.

Take `NCCc1ccc(O)c(O)c1` [dopamine]: in test [4], the “levels of cAMP compared to untreated cells” value is listed as “effective at increasing the levels of cAMP significantly”.

Take `CC(=O)OCC[N+](C)(C)C` [Ach, acetylcholine]: the “decrease in HR” value in test [3] (conscious AC5KO) amounted to 7.5%; in test [3] (conscious WT) it was 22%.

For the molecule `CN1[C@@H]2CC[C@H]1C[C@@H](OC(=O)C(CO)c1ccccc1)C2` (stereo partly shown) [atropine], the results for the “increase in HR” value in test [3] (AC5KO) and in test [3] (WT) were 19±7.5 beats/min and 102±22.2 beats/min, respectively.
